For experiment [1], the target named is T1, Microphthalmia-associated transcription factor (Homo sapiens, UniProt O75030).
T1 sequence (O75030 whole entry): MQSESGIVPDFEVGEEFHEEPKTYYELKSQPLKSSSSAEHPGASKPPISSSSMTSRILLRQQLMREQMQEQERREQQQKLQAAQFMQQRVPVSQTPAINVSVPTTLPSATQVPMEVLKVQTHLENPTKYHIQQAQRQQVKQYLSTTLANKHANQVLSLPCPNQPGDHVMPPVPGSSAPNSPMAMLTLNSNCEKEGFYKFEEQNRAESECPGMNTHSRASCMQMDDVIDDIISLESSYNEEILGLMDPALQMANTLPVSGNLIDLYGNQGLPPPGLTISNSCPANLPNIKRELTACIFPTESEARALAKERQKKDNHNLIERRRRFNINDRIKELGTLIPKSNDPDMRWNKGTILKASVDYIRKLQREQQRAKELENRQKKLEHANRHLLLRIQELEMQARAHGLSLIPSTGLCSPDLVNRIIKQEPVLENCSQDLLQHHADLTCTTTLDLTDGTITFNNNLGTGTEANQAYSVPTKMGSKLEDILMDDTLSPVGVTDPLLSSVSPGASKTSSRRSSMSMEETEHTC
In words: reducers of TRPM1 reporter luminescence, concentration series – cell-based, SK-MEL-5, cherry-picked, set 3, MITF inhibitor project, dose response (AID 493073).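 Note: SK-MEL-5 melanoma cells with luciferase driven by the MITF target TRPM1 promoter.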 Type of experiment: functional.

Experiment [2] in a line: Trypanosoma cruzi growth suppression in host cells – NIH3T3 host cells, beta-gal luminescence, confirmation (AID 2044).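 Note: intracellular parasites grown in NIH/3T3 mouse fibroblasts as host cells; luminescent beta-galactosidase reporter signal from transgenic T. cruzi replicating inside host cells; inhibitors lower the luminescence signal.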 The experiment is classed as functional, cell-based.
Experiment [3] addresses T2, Caspase-3 (Homo sapiens, UniProt P42574).
T2 sequence (P42574 whole entry): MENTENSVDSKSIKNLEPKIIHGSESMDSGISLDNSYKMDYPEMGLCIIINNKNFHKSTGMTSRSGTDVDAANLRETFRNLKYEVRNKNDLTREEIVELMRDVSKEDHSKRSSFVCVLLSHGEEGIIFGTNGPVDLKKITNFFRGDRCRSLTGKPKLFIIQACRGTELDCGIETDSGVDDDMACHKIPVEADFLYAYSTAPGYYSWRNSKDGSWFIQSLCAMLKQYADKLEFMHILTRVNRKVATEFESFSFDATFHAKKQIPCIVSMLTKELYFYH
Type of experiment: functional.

In experiment [4] the target is T3, Sentrin-specific protease 6 (Homo sapiens, UniProt Q9GZR1).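 Note: Luminescence-based dose-response confirmatory assay of SENP6 inhibition, following up an ultra-high-throughput screen.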
T3 sequence (Q9GZR1 whole entry): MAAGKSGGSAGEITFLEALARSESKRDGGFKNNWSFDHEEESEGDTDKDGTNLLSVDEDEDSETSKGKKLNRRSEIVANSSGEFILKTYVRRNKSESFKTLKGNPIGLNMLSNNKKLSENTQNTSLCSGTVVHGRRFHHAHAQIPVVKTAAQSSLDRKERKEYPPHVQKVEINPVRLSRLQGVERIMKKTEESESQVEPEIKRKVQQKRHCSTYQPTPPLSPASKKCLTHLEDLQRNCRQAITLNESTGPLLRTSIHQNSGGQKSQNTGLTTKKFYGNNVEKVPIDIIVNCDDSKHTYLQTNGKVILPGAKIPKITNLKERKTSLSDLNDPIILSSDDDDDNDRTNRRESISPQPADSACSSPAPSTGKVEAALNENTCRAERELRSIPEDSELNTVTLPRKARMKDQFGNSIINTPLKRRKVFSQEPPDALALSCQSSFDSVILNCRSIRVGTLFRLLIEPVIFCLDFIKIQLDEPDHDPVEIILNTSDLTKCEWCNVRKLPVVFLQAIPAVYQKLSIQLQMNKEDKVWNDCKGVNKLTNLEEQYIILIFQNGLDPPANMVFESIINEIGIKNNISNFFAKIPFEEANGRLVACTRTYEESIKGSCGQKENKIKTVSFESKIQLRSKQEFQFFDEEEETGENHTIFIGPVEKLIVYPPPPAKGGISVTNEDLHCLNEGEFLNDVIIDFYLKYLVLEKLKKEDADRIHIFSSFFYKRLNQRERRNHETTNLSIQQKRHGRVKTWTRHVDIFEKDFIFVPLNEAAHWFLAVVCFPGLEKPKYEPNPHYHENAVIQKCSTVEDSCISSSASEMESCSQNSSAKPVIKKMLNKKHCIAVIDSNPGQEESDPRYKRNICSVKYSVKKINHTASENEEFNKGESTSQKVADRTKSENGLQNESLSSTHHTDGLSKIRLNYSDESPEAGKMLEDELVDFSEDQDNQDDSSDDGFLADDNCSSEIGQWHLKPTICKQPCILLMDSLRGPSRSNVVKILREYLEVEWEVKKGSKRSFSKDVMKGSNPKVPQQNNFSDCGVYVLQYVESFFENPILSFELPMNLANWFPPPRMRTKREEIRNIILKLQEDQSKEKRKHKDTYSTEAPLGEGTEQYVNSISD
Type of experiment: functional.

Experiment [5] addresses T4, Tyrosyl-DNA phosphodiesterase 2 (Homo sapiens, UniProt O95551).
T4 sequence (O95551 whole entry): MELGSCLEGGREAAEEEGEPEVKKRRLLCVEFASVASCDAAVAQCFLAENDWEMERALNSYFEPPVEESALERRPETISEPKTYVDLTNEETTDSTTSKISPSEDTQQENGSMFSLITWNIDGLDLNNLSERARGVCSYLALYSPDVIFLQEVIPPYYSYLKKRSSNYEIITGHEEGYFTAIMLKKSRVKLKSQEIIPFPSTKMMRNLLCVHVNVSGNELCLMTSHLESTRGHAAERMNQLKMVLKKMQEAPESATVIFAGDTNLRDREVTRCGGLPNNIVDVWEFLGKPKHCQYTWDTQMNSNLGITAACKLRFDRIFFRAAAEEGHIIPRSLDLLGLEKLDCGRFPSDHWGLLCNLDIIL
Kind of experiment: potency against TDP2 phosphodiesterase activity – biochemical, epi absorbance, IC50, dose response (AID 743297).

The source made the active and inactive calls. Bounds are passed on as bounds.

Consider `O=C1c2cc(F)ccc2-n2c1nc1ccccc1c2=O`, for which the AC50 in experiment [1] was 1.05 µM (active).

For `O=C1C=C(N(CCO)Cc2ccccc2)c2ccccc2C1=O`, the EC50 in experiment [2] was > 30 µM (not active). The AC50 in experiment [1] is 4.78 µM (active). For the molecule `CCC(=O)OCCNc1cc(Sc2nccn2C)c2nonc2c1[N+](=O)[O-]`, the EC50 in experiment [2] was 1.97 µM (active). In addition, the AC50 in experiment [1] was 7.16 µM (active). `CCCCn1c(NC(=O)c2ccccc2Cl)c(C#N)c2nc3ccccc3nc21`: the values for the IC50 in experiment [3], in experiment [4] and in experiment [5] were 12.2 µM (active), 0.986 µM (active) and > 4.76 µM (active), respectively.

Consider `CCc1ccc(OCC(=O)N/N=C2\CC(=O)c3ccccc32)cc1`, for which the values for the IC50 in experiment [3] and in experiment [4] were 3.7 µM (active) and 4.06 µM (active), respectively. Take `O=C1C(=O)c2ccccc2-c2ccccc21` [9,10-PHENANTHRENEQUINONE]: the IC50 in experiment [5] is 1.91 µM (active).

What is called AC50 is the concentration giving half of the maximal activity seen. Usually EC50 stands for the concentration giving half of the maximal effect. By IC50 is commonly meant the concentration that gives 50% inhibition.

Source of the values: ChEMBL document CHEMBL1201862, “PubChem BioAssay data set” (2004).
